Melting point data for 120 molecules are collected here from a melting point compilation (Tetko et al.).

Structures are written as SMILES.

Usually melting point stands for the temperature, or range, at which the solid turns liquid. In the case of `CCc1ccc(C(=O)Nc2ccc(N)cc2Cl)s1`, the melting point was in the range of 120 to 122 °C.

Take `O=C(O)C(Cc1ccccc1)n1cnnn1` (stereo not given): the melting point is 162 to 164 °C.

The molecule `CN1CCN(C(N)=O)C(c2ccccc2)C1` (stereo not given) showed a melting point of 94 to 96 °C.

For the molecule `CNC(=O)c1cccc(CCN)c1`, the melting point is 110 to 112 °C.

`COC(=O)c1cc(F)ccc1CBr` gave a melting point of 41 to 43 °C.

In turn, `CN(C)c1ccc(C=O)s1` yielded a melting point of 65 to 67 °C.

The molecule `O=S1(=O)C=C(Nc2ccccc2)CC1` came in with a melting point of 153 to 155 °C.

`CS(=O)(=O)NCC(=O)c1ccccc1`: the melting point fell in the range of 113 to 115 °C.

The molecule `CCC1Oc2c(Cl)cccc2NC1=O` (stereo not given) yielded a melting point of 139 to 141 °C.

As to `O=C(O)/C=C/c1cc2ccccc2o1`, the melting point was in the range of 213 to 215 °C.

Consider `Clc1ccc(-n2ccnc2)nn1`, for which the melting point fell in the range of 185 to 187 °C.

As to `O=C(O)c1cc(/C=C/c2ccc(F)cc2)nc2ccc(Br)cc12`, the melting point lay in the range of 299 to 301 °C.

In the case of `CN(C)c1ccc(C=C(C#N)C(=O)O)cc1`, the melting point lay within 224 to 226 °C.

`Cc1ccc(NCCc2ccc(Cl)cc2)nn1` returned a melting point of 163 to 165 °C.

For `CC(C)(C)C1CNC(=O)C1` (stereo not given), the melting point is 130 to 132 °C.

Regarding `O=C(O)C1(c2ccccc2Cl)CCOCC1`, the melting point is 201 to 203 °C.

In the case of `CCN(c1ccccc1)S(=O)(=O)c1cc(N)ccc1Cl`, the melting point was in the range of 102 to 104 °C.

In turn, `COc1ccc(C2C(CO)CCC(=O)N2C)cc1` (stereo not given) showed a melting point of 119 to 121 °C.

Turning to `N#Cc1ccc2c(c1)CCO2`, the melting point lay within 64 to 66 °C.

Take `NCc1ccc(N2CC=CC2)cc1`: the melting point lay in the range of 74 to 76 °C.

`CN(C)S(=O)(=O)c1ccc(O)cc1`: the melting point was 95 to 97 °C.

Consider `CCS(=O)(=O)Nc1ccccc1F`, for which the melting point lay in the range of 68 to 70 °C.

Molecule `NC(=O)c1sccc1-c1ccccc1` yielded a melting point of 114 to 116 °C.

Molecule `NC1CCCS(=O)(=O)c2ccccc21` (stereo not given) gave a melting point of 115 to 117 °C.

`O=c1ccccn1CCOc1ccc(Br)cc1` registered a melting point of 111 to 113 °C.

The molecule `Cc1cc(C)n(CC(=O)O)n1` gave a melting point of 187 to 189 °C.

The molecule `Cc1nn(C2CCS(=O)(=O)C2)c(C)c1C=O` (stereo not given) had a melting point of 122 to 124 °C.

Molecule `CC1C=CC2C(=O)N(Cc3ccccc3)C(=O)C2C1C(=O)O` (stereo not given) gave a melting point of 204 to 206 °C.

`NC(=O)CNS(=O)(=O)c1c[nH]c(C(=O)O)c1`: the melting point was 239 to 241 °C.

Take `Nc1nnc(-c2ccc(F)cc2)o1`: the melting point was 246 to 248 °C.

On to `O=C(O)C1CCc2nncn2C1` (stereo not given), for which the melting point lay within 279 to 281 °C.

Turning to `O=C(CCl)NCc1ccc(F)cc1`, the melting point lay in the range of 92 to 95 °C.

With `COc1ccc(CCl)cc1Br`, the melting point was 45 to 51 °C.

As for `CC(Cl)c1nnnn1-c1ccccc1` (stereo not given), the melting point was 95 to 97 °C.

Regarding `CC(C)Nc1nc(COc2ccccc2)no1`, the melting point is 86 to 88 °C.

Molecule `NS(=O)(=O)c1ccccn1` registered a melting point of 141 to 143 °C.

`N#CCc1ccc(NC(=O)CCl)cc1` showed a melting point of 122 to 124 °C.

`NC(=O)C1CCCN1C(=O)NC(=O)CCl` (stereo not given) came in with a melting point of 126 to 128 °C.

As to `CCOC(=O)Nc1ccc(NC(C)c2ccccn2)cc1` (stereo not given), the melting point lay within 145 to 147 °C.

`Clc1nc(-c2ccccc2)c2ccccc2n1`: the melting point was 111 to 113 °C.

`CC1=C(C(=O)O)Cc2ccccc2O1` returned a melting point of 234 to 236 °C.

Molecule `CCOc1cc(C(=O)O)ccc1OCc1ccncc1` came in with a melting point of 238 to 240 °C.

`COc1ccc(-c2nnc(S)[nH]2)c(OC)c1` yielded a melting point of 250 to 252 °C.

In turn, `O=C(NCCO)c1ccc([N+](=O)[O-])cc1Cl` came in with a melting point of 173 to 175 °C.

`O=C(CC(=O)NCc1ccccc1)NCc1ccccc1` came in with a melting point of 119 to 121 °C.

As to `Cc1nn(C)c2ncc(C#N)cc12`, the melting point lay in the range of 176 to 178 °C.

Molecule `CC(=O)N1CCCC(C(N)=O)C1` (stereo not given) showed a melting point of 146 to 148 °C.

`S=c1cc[nH]c2ccccc12` had a melting point of 159 to 161 °C.

`O=C(O)c1ccnc(Oc2ccccc2)c1`: the melting point lay within 241 to 243 °C.

In turn, `Nc1ccc2[nH]c(=O)c(=O)[nH]c2c1` had a melting point of 352 to 354 °C.

`CN(Cc1ccccc1)C(=O)NCCC(=O)O` displayed a melting point of 120 to 122 °C.

Molecule `N#CCc1nnc2n1CCCCC2` registered a melting point of 113 to 115 °C.

For `O=C(O)C1CCCN(S(=O)(=O)Cc2ccccc2)C1` (stereo not given), the melting point fell in the range of 128 to 130 °C.

Regarding `CC(C)N(C(C)C)S(=O)(=O)c1ccc(NN)nc1`, the melting point is 159 to 161 °C.

Turning to `CC(C)(C)c1cc([N+](=O)[O-])c(O)c(C(C)(C)C)c1`, the melting point lay within 58 to 60 °C.

In turn, `Nc1ccccc1N1C(=O)c2ccc(Br)cc2C1=O` returned a melting point of 219 to 221 °C.

For `CS(=O)(=O)Cc1nc(Cl)c(Br)c(Cl)n1`, the melting point lay within 174 to 176 °C.

In turn, `NC(=S)C1CCCO1` (stereo not given) returned a melting point of 80 to 82 °C.

For the molecule `NC(=S)C1CN(C(=O)OCc2ccccc2)CCO1` (stereo not given), the melting point is 147 to 149 °C.

Take `Nc1ccc(-c2nnc3n2CCC3)cc1`: the melting point lay within 311 to 313 °C.

`O=C(Nc1cccnc1)c1ccc(O)cc1`: the melting point fell in the range of 273 to 275 °C.

With `CC(NC(=O)CCl)c1cccs1` (stereo not given), the melting point fell in the range of 92 to 94 °C.

In turn, `Cc1cc2c(c(C)c1Cl)C(=O)CCO2` came in with a melting point of 67 to 69 °C.

`N#Cc1cnc(-c2ccccc2)nc1`: the melting point was 189 to 191 °C.

Take `COC(=O)Cn1cnc2c(N)ncnc21`: the melting point lay in the range of 228 to 230 °C.

Molecule `O=Cc1cnc(-c2ccccn2)s1` had a melting point of 149 to 151 °C.

For `BrCc1cc(Br)cc2cccnc12`, the melting point is 140 to 142 °C.

Take `COc1ccc(C(=O)c2cccc3ccccc23)cc1`: the melting point was in the range of 95 to 97 °C.

Turning to `ClCc1nc(Cl)c2c3c(sc2n1)CCCC3`, the melting point fell in the range of 89 to 91 °C.

Turning to `CC(C1CC1)n1ncc2c(C(=O)O)cc(C3CC3)nc21` (stereo not given), the melting point was 148 to 150 °C.

Take `COC(=O)C(=O)CC(=O)c1ccccc1C`: the melting point was 59 to 61 °C.

As to `O=C(O)C(Oc1ccc(F)cc1Cl)c1ccccc1` (stereo not given), the melting point is 134 to 136 °C.

Molecule `Oc1nnc(S)n1CCc1ccccc1` showed a melting point of 167 to 169 °C.

In turn, `COc1ccc(C(=O)c2ccccc2Cl)cc1` displayed a melting point of 77 to 79 °C.

On to `O=C(O)c1cocn1`, for which the melting point lay within 129 to 131 °C.

On to `CC(O)c1cc(Cl)ccc1Cl` (stereo not given), for which the melting point fell in the range of 60 to 64 °C.

`COc1ccc(S(=O)(=O)NC(CCC(N)=O)C(=O)O)cc1` (stereo not given): the melting point is 171 to 173 °C.

In turn, `Nc1nonc1-c1ccccc1` displayed a melting point of 96 to 98 °C.

`COc1ccc2c(c1)OCC2CC(=O)O` (stereo not given) returned a melting point of 94 to 96 °C.

Turning to `O=C(Nc1cccc(F)c1)OCC(F)(F)F`, the melting point fell in the range of 50 to 52 °C.

On to `CS(=O)(=O)c1ccc2c(c1)NC(=O)CO2`, for which the melting point fell in the range of 229 to 231 °C.

Molecule `CC(C)(C(=O)NO)c1ccccc1` displayed a melting point of 144 to 146 °C.

`CS(=O)(=O)Cc1cccc(N)c1` gave a melting point of 121 to 123 °C.

In turn, `Cc1cc(Oc2ccccc2)ccc1N` showed a melting point of 60 to 62 °C.

With `CC(Br)C(=O)c1ccc2c(c1)CCC(=O)N2` (stereo not given), the melting point was 193 to 195 °C.

Molecule `Oc1ccc(C2SCCCS2)cc1` had a melting point of 154 to 156 °C.

`Cc1oncc1C(=O)Nc1ccc(N)c(C(F)(F)F)c1` displayed a melting point of 196 to 198 °C.

Regarding `O=C(O)c1cc2c(F)cc(F)cc2[nH]1`, the melting point lay within 252 to 254 °C.

As for `O=C(O)CCNS(=O)(=O)c1cccc([N+](=O)[O-])c1`, the melting point was 134 to 136 °C.

On to `COc1cccc(CNC(=O)CCl)c1`, for which the melting point lay in the range of 100 to 104 °C.

The molecule `CCOC(=O)c1cccnc1SCC(=O)O` returned a melting point of 109 to 111 °C.

Regarding `C#CCNC(=O)CC(=O)O`, the melting point was 64 to 66 °C.

For the molecule `O=Cc1cc(Br)ccc1OCC(=O)O`, the melting point is 170 to 172 °C.

In turn, `CC(=O)Nc1cccs1` returned a melting point of 146 to 148 °C.

The molecule `Nc1ccc(S(=O)(=O)N=C2CCCCCN2)cc1` yielded a melting point of 115 to 117 °C.

With `COc1ccc(C)cc1/C=C/C(=O)O`, the melting point was in the range of 141 to 143 °C.

The molecule `COCCOc1ccc(-n2nc(C)c(C(=O)O)n2)cc1` registered a melting point of 157 to 159 °C.

Molecule `O=C(C1CCNCC1)N1CCc2ccccc21` gave a melting point of 67 to 69 °C.

Molecule `Cc1cccc(Oc2ncccc2N)c1C` had a melting point of 147 to 149 °C.

Take `Cc1nn(C)c(Cl)c1CO`: the melting point lay in the range of 92 to 94 °C.

`Cc1nn(C(C)C)c(C)c1N` registered a melting point of 58 to 60 °C.

On to `Oc1ccc(OCc2ccncc2)cc1`, for which the melting point was in the range of 179 to 181 °C.

Regarding `O=C(O)c1ncoc1-c1ccco1`, the melting point lay in the range of 171 to 173 °C.

`O=C(O)c1cn(-c2ccccc2)nc1-c1cccc2ccccc12` registered a melting point of 186 to 188 °C.

In turn, `N#CCS(=O)(=O)c1ccc(C(=O)O)cc1` returned a melting point of 236 to 238 °C.

With `Cn1ccnc1C(O)(CCN)C(F)(F)F` (stereo not given), the melting point lay in the range of 115 to 117 °C.

Regarding `O=C(O)c1ccc(Cl)c(S(=O)(=O)N2CCc3ccccc32)c1`, the melting point fell in the range of 195 to 197 °C.

As to `Cc1cccc(Cc2cnc(N)s2)c1`, the melting point lay within 100 to 102 °C.

As for `O=C(O)c1coc(C#Cc2ccccc2)c1`, the melting point lay within 183 to 185 °C.

Take `O=[N+]([O-])c1cccc(OCC2CO2)c1` (stereo not given): the melting point lay in the range of 63 to 65 °C.

Turning to `CC1(c2ccc3c(c2)OCCO3)NC(=O)NC1=O` (stereo not given), the melting point is 180 to 182 °C.

Turning to `N#CC(C(=O)CCl)=C1Nc2ccccc2N1`, the melting point was in the range of 285 to 287 °C.

Molecule `COc1cccc(-n2c(C)cc(C(=O)O)c2C)c1` displayed a melting point of 142 to 144 °C.

On to `Cc1c(NC(=S)Nc2c(C)n(C)n(-c3ccccc3)c2=O)c(=O)n(-c2ccccc2)n1C`, for which the melting point was 93 to 95 °C.

In turn, `CC1(C)NC(=O)N(CCC(=O)NN)C1=O` yielded a melting point of 176 to 178 °C.

Consider `O=C(O)c1ccc(-c2noc(C(F)(F)F)n2)cc1`, for which the melting point was in the range of 249 to 251 °C.

The molecule `CNS(=O)(=O)c1cc(OC)c(OC)cc1Br` displayed a melting point of 156 to 158 °C.

In turn, `O=c1ccc(-c2ccccc2)n[nH]1` gave a melting point of 201 to 204 °C.

For the molecule `CC1CCC(NS(=O)(=O)c2ccc(Cl)c([N+](=O)[O-])c2)CC1` (stereo not given), the melting point is 101 to 103 °C.

Molecule `Nc1ccccc1C(=O)NCCCN1CCOCC1` had a melting point of 194 to 198 °C.
